Patent US4985445A, “Cancer cell metastasis inhibitors and novel compounds” (Meiji Seika Kaisha, Ltd., priority 1988, dated 1991)
Where two headings read alike, the source gives them in different places.

Key:
[1] = Acute toxicity (LD50) by mice; settings: mouse, in vivo, ip
[2] = test system: B16 subline of high pulmonary metastatic potential; settings: Table 2, B16 subline, 3 days;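 also: + means growth and ± means marked inhibition and - means cell death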
Protocol: (§1) The B16 subline of high pulmonary metastatic potential and murine tumor cell line L 929 were cultured in DME medium supplemented with 10% bovine fetal serum at 37° C. in the presence of 5% CO2. Then, cells were detached from the Petri dish with trypsin-EDTA solution. The B16 subline and L 929 were suspended in the medium described above in 1×10^4 cells/ml and 1×10^3 cells/ml, respectively. Each suspension, 150 μl, was added to 50 μl of N-(3-phenylpropyl)-1-deoxynojirimycin solution or Adriamycin (control) solution. Incubation was performed for 3 days for the B16 subline and for 4 days for L 929 strain.
as §1, with “of N-(4-phenoxy-trans-2-butenyl)-1-deoxynojirimycin” for “of N-(3-phenylpropyl)-1-deoxynojirimycin”, “days in” for “days for”, “L 929.” for “L 929 strain.”
as §1, with “of D-glucaro-δ-lactam calcium salt” for “of N-(3-phenylpropyl)-1-deoxynojirimycin”, “(control) solutions.” for “(control) solution.”, “days in” for “days for”, “L 929.” for “L 929 strain.”
The B16 subline of high pulmonary metastatic potential and murine tumor cell line L 929 were cultured in DME medium supplemented with 10% bovine fetal serum at 37° C. in the presence of 5% CO2. Then, cells were detached from the Petri dish with trypsin-EDTA solution. The B16 subline and L 929 were suspended in the medium described above in 1×10^4 cells/ml and 1×10^3 cells/ml, respectively. Each suspension, 150 μl, was added to 50 μl of 2,6-di-O-(1-(p-chlorobenzoyl)-5-methoxy-2-methylindole-3-acetyl)-D-gluco-δ-lactam solution or and Adriamycin (control) solutions. Incubation was performed for 3 days in the B16 subline and for 4 days in L 929.
The B16 subline of high pulmanary metastatic potential and murine tumor cell line L 929 were cultured in DME medium supplemented with 10% bovine fetal serum at 37° C. in the presence of 5% CO2. Then, cells were detached from the Petri dish with trypsin-EDTA solution. The B16 subline and L 929 were suspended in the medium described above in 1×10^4 cells/ml and 1×10^3 cells/ml, respectively. Each suspension, 150 μl, was added to 50 μl of 6-O-triphenylmethyl-D-gluco-δ-lactam solution or Adriamycin (control) solutions. Incubation was performed for 3 days in the B16 sibline and for 4 days in L 929.
The B16 subline of high pulmonary metastatic potential was inoculated into DME medium supplemented with 10% bovine fetal serum and 30 μg/ml of 1-deoxynojirimycin was added thereto followed by incubation at 37° C. for 3 days in the presence of 5% CO2. […] Next, the cells were detached from the Petri dish with trypsin-EDTA solution. The cells were suspended in PBS- in 1×10^6 cells/ml as viable cells. This suspension, 0.1 ml, was intravenously injected in the tail vein of the mouse BDF1 (8 week age, male; 1 group, 3 mice). After feeding for 14 days, the mouse was sacrificed to excise the lungs. The number of colonies of the B16 subline on the surface of and in the lungs was counted.

Which results are given for `OC[C@@H]1[C@@H](O)[C@H](O)[C@@H](O)CN1CCCc1ccccc1` [N-(3-Phenylpropyl)-1-deoxynojirimycin, N-(3-phenylpropyl)-1-deoxynojirimycin]?
LD50 [1]: > 500 mg/kg; Growth ([2]; 30 μg/ml): +; Growth ([2]; 100 μg/ml): +; Growth ([2]; 300 μg/ml): ±
